Assay results taken from the supplement of paper PMC10307832.

Key:
Test in all cases: relative viability (nuclei count vs DMSO), 5 days (fraction); higher = more cells survive
[1] = tested on: NCI-H441
Summary of the method: (§1)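 Lung cancer cell lines were seeded in 1536-well plates and dosed by pin tool the next day, with either a single drug or a fixed anchor-drug dose combined with five library-drug doses (not always all listed) spaced in √10 steps. Five days later, one step fixed the cells and stained their nuclei (final 0.05% Triton X-100, 1% formaldehyde, 1 ug/ml Hoechst), and nuclei were counted on 4× images. Relative viability is the nuclei count in treated wells divided by the count in vehicle wells, and each value is the median of duplicate plates.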

[2] = tested on: 201T
Summary of the method: as §1

[3] = tested on: SK-LU-1
Summary of the method: as §1

[4] = tested on: NCI-H650
Summary of the method: as §1

[5] = tested on: LCLC-97TM1
Summary of the method: as §1

[6] = tested on: NCI-H1355
Summary of the method: as §1

[7] = tested on: SW 1573
Summary of the method: as §1

[8] = tested on: NCI-H1563
Summary of the method: as §1

[9] = tested on: NCI-H1651
Summary of the method: as §1

[10] = tested on: NCI-H838
Summary of the method: as §1

[11] = tested on: NCI-H322M
Summary of the method: as §1

[12] = tested on: NCI-H2347
Summary of the method: as §1

[13] = tested on: BEN
Summary of the method: as §1

[14] = tested on: NCI-H3122
Summary of the method: as §1

[15] = tested on: HOP-62
Summary of the method: as §1

[16] = tested on: LOU-NH91
Summary of the method: as §1

[17] = tested on: NCI-H2126
Summary of the method: as §1

[18] = tested on: NCI-H1793
Summary of the method: as §1

[19] = tested on: NCI-H1944
Summary of the method: as §1

[20] = tested on: NCI-H1395
Summary of the method: as §1

[21] = tested on: NCI-H1915
Summary of the method: as §1

[22] = tested on: CAL-12T
Summary of the method: as §1

**Q.** Which results are given for Cc1csc(=NC2CCCCC2)n1/N=C/c1ccc(O)c(O)c1O [MIM1] + CCNC(=O)c1noc(-c2cc(C(C)C)c(O)cc2O)c1-c1ccc(CN2CCOCC2)cc1 [Luminespib] (partner 0.01 µM)?
**A.** relative viability ([1]; first compound 0.2 µM): 0.253; relative viability ([1]; first compound 2 µM): 0.327; relative viability ([1]; first compound 6.325 µM): 0.354; relative viability ([1]; first compound 20 µM): 0.191; relative viability ([2]; first compound 0.2 µM): 1.03; relative viability ([2]; first compound 0.6325 µM): 1.05; relative viability ([2]; first compound 2 µM): 1.03; relative viability ([2]; first compound 6.325 µM): 0.548; relative viability ([2]; first compound 20 µM): 0.368; relative viability ([3]; first compound 0.2 µM): 0.178; relative viability ([3]; first compound 0.6325 µM): 0.21; relative viability ([3]; first compound 2 µM): 0.181; relative viability ([3]; first compound 6.325 µM): 0.196; relative viability ([3]; first compound 20 µM): 0.227; relative viability ([4]; first compound 0.2 µM): 0.822; relative viability ([4]; first compound 0.6325 µM): 0.619; relative viability ([4]; first compound 2 µM): 0.85; relative viability ([4]; first compound 6.325 µM): 0.704; relative viability ([4]; first compound 20 µM): 0.288; relative viability ([5]; first compound 0.2 µM): 0.783; relative viability ([5]; first compound 0.6325 µM): 0.733; relative viability ([5]; first compound 2 µM): 0.755; relative viability ([5]; first compound 6.325 µM): 0.512; relative viability ([5]; first compound 20 µM): 0.238; relative viability ([6]; first compound 0.2 µM): 0.698; relative viability ([6]; first compound 0.6325 µM): 0.591; relative viability ([6]; first compound 2 µM): 0.726; relative viability ([6]; first compound 6.325 µM): 0.659; relative viability ([6]; first compound 20 µM): 0.391; relative viability ([7]; first compound 0.2 µM): 0.22; relative viability ([7]; first compound 0.6325 µM): 0.318; relative viability ([7]; first compound 2 µM): 0.194; relative viability ([7]; first compound 6.325 µM): 0.143; relative viability ([7]; first compound 20 µM): 0.069; relative viability ([8]; first compound 0.2 µM): 0.51; relative viability ([8]; first compound 0.6325 µM): 0.607; relative viability ([8]; first compound 2 µM): 0.519; relative viability ([8]; first compound 6.325 µM): 0.553; relative viability ([8]; first compound 20 µM): 0.362; relative viability ([9]; first compound 0.2 µM): 0.876; relative viability ([9]; first compound 0.6325 µM): 0.785; relative viability ([9]; first compound 2 µM): 0.617; relative viability ([9]; first compound 6.325 µM): 0.67; relative viability ([9]; first compound 20 µM): 0.495; relative viability ([10]; first compound 0.2 µM): 0.372; relative viability ([10]; first compound 0.6325 µM): 0.317; relative viability ([10]; first compound 2 µM): 0.288; relative viability ([10]; first compound 6.325 µM): 0.267; relative viability ([10]; first compound 20 µM): 0.16; relative viability ([11]; first compound 0.2 µM): 0.837; relative viability ([11]; first compound 0.6325 µM): 0.771; relative viability ([11]; first compound 2 µM): 0.832; relative viability ([11]; first compound 6.325 µM): 0.729; relative viability ([11]; first compound 20 µM): 0.31; relative viability ([12]; first compound 0.2 µM): 0.496; relative viability ([12]; first compound 0.6325 µM): 0.403; relative viability ([12]; first compound 2 µM): 0.236; relative viability ([12]; first compound 6.325 µM): 0.346; relative viability ([12]; first compound 20 µM): 0.334; relative viability ([13]; first compound 0.2 µM): 0.249; relative viability ([13]; first compound 0.6325 µM): 1.24; relative viability ([13]; first compound 2 µM): 0.36; relative viability ([13]; first compound 6.325 µM): 0.329; relative viability ([13]; first compound 20 µM): 0.173; relative viability ([14]; first compound 0.2 µM): 0.0956; relative viability ([14]; first compound 0.6325 µM): 0.0902; relative viability ([14]; first compound 2 µM): 0.103; relative viability ([14]; first compound 6.325 µM): 0.106; relative viability ([14]; first compound 20 µM): 0.0938; relative viability ([15]; first compound 0.2 µM): 1.01; relative viability ([15]; first compound 0.6325 µM): 0.841; relative viability ([15]; first compound 2 µM): 0.893; relative viability ([15]; first compound 6.325 µM): 0.758; relative viability ([15]; first compound 20 µM): 0.301; relative viability ([16]; first compound 0.2 µM): 0.338; relative viability ([16]; first compound 0.6325 µM): 0.338; relative viability ([16]; first compound 2 µM): 0.32; relative viability ([16]; first compound 6.325 µM): 0.271; relative viability ([16]; first compound 20 µM): 0.268; relative viability ([17]; first compound 0.2 µM): 0.891; relative viability ([17]; first compound 0.6325 µM): 0.943; relative viability ([17]; first compound 2 µM): 0.957; relative viability ([17]; first compound 6.325 µM): 0.88; relative viability ([17]; first compound 20 µM): 0.466; relative viability ([18]; first compound 0.2 µM): 0.187; relative viability ([18]; first compound 2 µM): 0.188; relative viability ([18]; first compound 6.325 µM): 0.162; relative viability ([18]; first compound 20 µM): 0.138; relative viability ([19]; first compound 0.2 µM): 0.632; relative viability ([19]; first compound 0.6325 µM): 0.823; relative viability ([19]; first compound 2 µM): 0.466; relative viability ([19]; first compound 6.325 µM): 0.517; relative viability ([19]; first compound 20 µM): 0.568; relative viability ([20]; first compound 0.2 µM): 0.66; relative viability ([20]; first compound 0.6325 µM): 0.547; relative viability ([20]; first compound 2 µM): 0.755; relative viability ([20]; first compound 6.325 µM): 0.573; relative viability ([20]; first compound 20 µM): 0.293; relative viability ([21]; first compound 0.2 µM): 0.743; relative viability ([21]; first compound 0.6325 µM): 0.641; relative viability ([21]; first compound 2 µM): 0.685; relative viability ([21]; first compound 6.325 µM): 0.579; relative viability ([21]; first compound 20 µM): 0.183; relative viability ([22]; first compound 0.2 µM): 0.29; relative viability ([22]; first compound 0.6325 µM): 0.542; relative viability ([22]; first compound 2 µM): 0.522; relative viability ([22]; first compound 6.325 µM): 0.281; relative viability ([22]; first compound 20 µM): 0.328
